≈ marks a conversion by molar mass, not a printed value.
System: G(−) bacterial strains
Experiment: Dilution antimicrobial susceptibility tests (MIC, NCCLS agar dilution / broth dilution)
Format: cell-based, Gram-negative organisms
Settings: unit assumed
How it was run: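 Agar dilution on Mueller-Hinton agar at 10^4 CFU/spot and broth dilution at 5×10^5 CFU/well, per NCCLS M7-A5. Streptococci tested on Mueller-Hinton agar with 5% sheep blood. MIC taken as minimum inhibitory concentration; ATCC control strains run alongside.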

[1] = strain #1 Acinetobacter calcoaceticus
[2] = strain #2 Acinetobacter baumannii, Cf-R, Ci-R
[3] = strain #3 Acinetobacter baumannii, Cf-R, Ci-R, Mp-I
[4] = strain #4 Acinetobacter baumannii, Cf-R, Imp-I, CBPase
[5] = strain #7 Enterobacter aerogenes
[6] = strain #8 Enterobacter cloacae, Cf-R, B+
[7] = strain #9 Enterobacter cloacae, Cf-R
[8] = strain #10 Escherichia coli, Ci-R
[9] = strain #11 Escherichia coli, Ci-R, AmpC
[10] = strain #15 Klebsiella pneumoniae
[11] = strain #16 Moraxella catarrhalis
[12] = strain #21 Providencia rettgeri
[13] = strain #22 Salmonella typhimurium
[14] = strain #25 Shigella dysenteriae
[15] = strain #28 Stenotrophomonas maltophilia
[16] = strain #29 Pseudomonas aeruginosa
[17] = strain #30 Pseudomonas aeruginosa
[18] = strain #31 Pseudomonas aeruginosa, Ofx-R
[19] = strain #32 Pseudomonas aeruginosa, Cf-R
[20] = strain #33 Pseudomonas aeruginosa, Ci-R
[21] = strain #34 Pseudomonas aeruginosa, Gen-R
[22] = strain #35 Pseudomonas aeruginosa, Ip-R
[23] = strain #36 Pseudomonas aeruginosa, Cf-R, Ci-R, Mp-R

## C[C@@H](O)C1C(=O)N2C(C(=O)O)=C(CN3CC[C@@H](C(N)=O)C3)[C@H](C)C12 (some centres unmarked) [Compound 115]
[1]
  MIC: 0.5 µg/mL (≈ 1.48 µM)
[2]
  MIC: 1 µg/mL (≈ 2.96 µM)
[3]
  MIC: 2 µg/mL (≈ 5.93 µM)
[4]
  MIC: 1 µg/mL (≈ 2.96 µM)
Strain #5 Citrobacter diversus
  MIC: 0.25 µg/mL (≈ 0.741 µM)
Strain #6 Citrobacter freundii
  MIC: 0.25 µg/mL (≈ 0.741 µM)
[5]
  MIC: 1 µg/mL (≈ 2.96 µM)
[6]
  MIC: 0.13 µg/mL (≈ 0.385 µM)
[7]
  MIC: 0.25 µg/mL (≈ 0.741 µM)
[8]
  MIC: 0.25 µg/mL (≈ 0.741 µM)
[9]
  MIC: 0.25 µg/mL (≈ 0.741 µM)
Strain #12 Escherichia coli
  MIC: 0.25 µg/mL (≈ 0.741 µM)
Strain #13 Escherichia coli
  MIC: 0.25 µg/mL (≈ 0.741 µM)
Strain #14 Klebsiella oxytoca
  MIC: 0.25 µg/mL (≈ 0.741 µM)
[10]
  MIC: 0.5 µg/mL (≈ 1.48 µM)
[11]
  MIC: ≤ 0.008 µg/mL
Strain #17 Morganella Morganii
  MIC: 2 µg/mL (≈ 5.93 µM)
Strain #18 Morganella Morganii
  MIC: 2 µg/mL (≈ 5.93 µM)
Strain #19 Proteus vulgaris
  MIC: 1 µg/mL (≈ 2.96 µM)
Strain #20 Proteus mirabilis
  MIC: 0.25 µg/mL (≈ 0.741 µM)
[12]
  MIC: 1 µg/mL (≈ 2.96 µM)
[13]
  MIC: 0.25 µg/mL (≈ 0.741 µM)
Strain #23 Serratia marcescens
  MIC: 0.5 µg/mL (≈ 1.48 µM)
Strain #24 Serratia marcescens
  MIC: 1 µg/mL (≈ 2.96 µM)
[14]
  MIC: 0.25 µg/mL (≈ 0.741 µM)
Strain #26 Shigella sonnei
  MIC: 0.25 µg/mL (≈ 0.741 µM)
Strain #27 Shigella flexneri
  MIC: 0.25 µg/mL (≈ 0.741 µM)
[15]
  MIC: 0.25 µg/mL (≈ 0.741 µM)
[16]
  MIC: 4 µg/mL (≈ 11.9 µM)
[17]
  MIC: 4 µg/mL (≈ 11.9 µM)
[18]
  MIC: 1 µg/mL (≈ 2.96 µM)
[19]
  MIC: 4 µg/mL (≈ 11.9 µM)
[20]
  MIC: 8 µg/mL (≈ 23.7 µM)
[21]
  MIC: 8 µg/mL (≈ 23.7 µM)
[22]
  MIC: 8 µg/mL (≈ 23.7 µM)
[23]
  MIC: > 32 µg/mL

## C[C@@H](O)C1C(=O)N2C(C(=O)O)=C(CN3CC[C@H](C(=O)N(C)C)C3)[C@H](C)C12 (some centres unmarked) [Compound 120]
[1]
  MIC: 4 µg/mL (≈ 10.9 µM)
[2]
  MIC: 8 µg/mL (≈ 21.9 µM)
[3]
  MIC: 16 µg/mL (≈ 43.8 µM)
[4]
  MIC: 4 µg/mL (≈ 10.9 µM)
Strain #5 Citrobacter diversus
  MIC: 0.5 µg/mL (≈ 1.37 µM)
Strain #6 Citrobacter freundii
  MIC: 0.5 µg/mL (≈ 1.37 µM)
[5]
  MIC: 2 µg/mL (≈ 5.47 µM)
[6]
  MIC: 0.5 µg/mL (≈ 1.37 µM)
[7]
  MIC: 1 µg/mL (≈ 2.74 µM)
[8]
  MIC: 0.5 µg/mL (≈ 1.37 µM)
[9]
  MIC: 0.5 µg/mL (≈ 1.37 µM)
Strain #12 Escherichia coli
  MIC: 0.5 µg/mL (≈ 1.37 µM)
Strain #13 Escherichia coli
  MIC: 0.5 µg/mL (≈ 1.37 µM)
Strain #14 Klebsiella oxytoca
  MIC: 1 µg/mL (≈ 2.74 µM)
[10]
  MIC: 1 µg/mL (≈ 2.74 µM)
[11]
  MIC: 0.016 µg/mL (≈ 0.0438 µM)
Strain #17 Morganella Morganii
  MIC: 8 µg/mL (≈ 21.9 µM)
Strain #18 Morganella Morganii
  MIC: 4 µg/mL (≈ 10.9 µM)
Strain #19 Proteus vulgaris
  MIC: 4 µg/mL (≈ 10.9 µM)
Strain #20 Proteus mirabilis
  MIC: 0.5 µg/mL (≈ 1.37 µM)
[12]
  MIC: 2 µg/mL (≈ 5.47 µM)
[13]
  MIC: 0.5 µg/mL (≈ 1.37 µM)
Strain #23 Serratia marcescens
  MIC: 1 µg/mL (≈ 2.74 µM)
Strain #24 Serratia marcescens
  MIC: 2 µg/mL (≈ 5.47 µM)
[14]
  MIC: 0.5 µg/mL (≈ 1.37 µM)
Strain #26 Shigella sonnei
  MIC: 0.5 µg/mL (≈ 1.37 µM)
Strain #27 Shigella flexneri
  MIC: 0.5 µg/mL (≈ 1.37 µM)
[15]
  MIC: 1 µg/mL (≈ 2.74 µM)
[16]
  MIC: 16 µg/mL (≈ 43.8 µM)
[17]
  MIC: 16 µg/mL (≈ 43.8 µM)
[18]
  MIC: 4 µg/mL (≈ 10.9 µM)
[19]
  MIC: 16 µg/mL (≈ 43.8 µM)
[20]
  MIC: 16 µg/mL (≈ 43.8 µM)
[21]
  MIC: 16 µg/mL (≈ 43.8 µM)
[22]
  MIC: > 32 µg/mL
[23]
  MIC: > 32 µg/mL

## CNC(=O)[C@H]1CCN(CC2=C(C(=O)O)N3C(=O)C([C@@H](C)O)C3[C@H]2C)C1 (some centres unmarked) [Compound 127]
[1]
  MIC: 1 µg/mL (≈ 2.85 µM)
[2]
  MIC: 1 µg/mL (≈ 2.85 µM)
[3]
  MIC: 4 µg/mL (≈ 11.4 µM)
[4]
  MIC: 2 µg/mL (≈ 5.69 µM)
Strain #5 Citrobacter diversus
  MIC: 0.5 µg/mL (≈ 1.42 µM)
Strain #6 Citrobacter freundii
  MIC: 0.5 µg/mL (≈ 1.42 µM)
[5]
  MIC: 2 µg/mL (≈ 5.69 µM)
[6]
  MIC: 0.5 µg/mL (≈ 1.42 µM)
[7]
  MIC: 1 µg/mL (≈ 2.85 µM)
[8]
  MIC: 0.5 µg/mL (≈ 1.42 µM)
[9]
  MIC: 0.5 µg/mL (≈ 1.42 µM)
Strain #12 Escherichia coli
  MIC: 0.5 µg/mL (≈ 1.42 µM)
Strain #13 Escherichia coli
  MIC: 0.5 µg/mL (≈ 1.42 µM)
Strain #14 Klebsiella oxytoca
  MIC: 1 µg/mL (≈ 2.85 µM)
[10]
  MIC: 1 µg/mL (≈ 2.85 µM)
[11]
  MIC: ≤ 0.008 µg/mL
Strain #17 Morganella Morganii
  MIC: 4 µg/mL (≈ 11.4 µM)
Strain #18 Morganella Morganii
  MIC: 4 µg/mL (≈ 11.4 µM)
Strain #19 Proteus vulgaris
  MIC: 2 µg/mL (≈ 5.69 µM)
Strain #20 Proteus mirabilis
  MIC: 0.5 µg/mL (≈ 1.42 µM)
[12]
  MIC: 2 µg/mL (≈ 5.69 µM)
[13]
  MIC: 0.5 µg/mL (≈ 1.42 µM)
Strain #23 Serratia marcescens
  MIC: 1 µg/mL (≈ 2.85 µM)
Strain #24 Serratia marcescens
  MIC: 2 µg/mL (≈ 5.69 µM)
[14]
  MIC: 1 µg/mL (≈ 2.85 µM)
Strain #26 Shigella sonnei
  MIC: 0.5 µg/mL (≈ 1.42 µM)
Strain #27 Shigella flexneri
  MIC: 0.5 µg/mL (≈ 1.42 µM)
[15]
  MIC: 0.5 µg/mL (≈ 1.42 µM)
[16]
  MIC: 8 µg/mL (≈ 22.8 µM)
[17]
  MIC: 8 µg/mL (≈ 22.8 µM)
[18]
  MIC: 2 µg/mL (≈ 5.69 µM)
[19]
  MIC: 8 µg/mL (≈ 22.8 µM)
[20]
  MIC: 8 µg/mL (≈ 22.8 µM)
[21]
  MIC: 8 µg/mL (≈ 22.8 µM)
[22]
  MIC: 16 µg/mL (≈ 45.5 µM)
[23]
  MIC: > 32 µg/mL

## C[C@@H](O)C1C(=O)N2C(C(=O)O)=C(CN3CC[C@H](C(=O)NS(C)(=O)=O)C3)[C@H](C)C12 (some centres unmarked) [Compound 132]
[1]
  MIC: 4 µg/mL (≈ 9.63 µM)
[2]
  MIC: 16 µg/mL (≈ 38.5 µM)
[3]
  MIC: 16 µg/mL (≈ 38.5 µM)
[4]
  MIC: 32 µg/mL (≈ 77 µM)
Strain #5 Citrobacter diversus
  MIC: 0.25 µg/mL (≈ 0.602 µM)
Strain #6 Citrobacter freundii
  MIC: 0.25 µg/mL (≈ 0.602 µM)
[5]
  MIC: 1 µg/mL (≈ 2.41 µM)
[6]
  MIC: 0.25 µg/mL (≈ 0.602 µM)
[7]
  MIC: 0.5 µg/mL (≈ 1.2 µM)
[8]
  MIC: 0.25 µg/mL (≈ 0.602 µM)
[9]
  MIC: 0.25 µg/mL (≈ 0.602 µM)
Strain #12 Escherichia coli
  MIC: 0.25 µg/mL (≈ 0.602 µM)
Strain #13 Escherichia coli
  MIC: 0.25 µg/mL (≈ 0.602 µM)
Strain #14 Klebsiella oxytoca
  MIC: 0.5 µg/mL (≈ 1.2 µM)
[10]
  MIC: 0.5 µg/mL (≈ 1.2 µM)
[11]
  MIC: 0.016 µg/mL (≈ 0.0385 µM)
Strain #17 Morganella Morganii
  MIC: 4 µg/mL (≈ 9.63 µM)
Strain #18 Morganella Morganii
  MIC: 4 µg/mL (≈ 9.63 µM)
Strain #19 Proteus vulgaris
  MIC: 1 µg/mL (≈ 2.41 µM)
Strain #20 Proteus mirabilis
  MIC: 0.25 µg/mL (≈ 0.602 µM)
[12]
  MIC: 1 µg/mL (≈ 2.41 µM)
[13]
  MIC: 0.25 µg/mL (≈ 0.602 µM)
Strain #23 Serratia marcescens
  MIC: 0.5 µg/mL (≈ 1.2 µM)
Strain #24 Serratia marcescens
  MIC: 1 µg/mL (≈ 2.41 µM)
[14]
  MIC: 0.25 µg/mL (≈ 0.602 µM)
Strain #26 Shigella sonnei
  MIC: 0.25 µg/mL (≈ 0.602 µM)
Strain #27 Shigella flexneri
  MIC: 0.13 µg/mL (≈ 0.313 µM)
[15]
  MIC: 2 µg/mL (≈ 4.81 µM)

## C[C@@H](O)C1C(=O)N2C(C(=O)O)=C(CN3CC[C@H](C(=O)NCC(N)=O)C3)[C@H](C)C12 (some centres unmarked) [Compound 137]
[1]
  MIC: 1 µg/mL (≈ 2.54 µM)
[2]
  MIC: 2 µg/mL (≈ 5.07 µM)
[3]
  MIC: 8 µg/mL (≈ 20.3 µM)
[4]
  MIC: 2 µg/mL (≈ 5.07 µM)
Strain #5 Citrobacter diversus
  MIC: 0.5 µg/mL (≈ 1.27 µM)
Strain #6 Citrobacter freundii
  MIC: 1 µg/mL (≈ 2.54 µM)
[5]
  MIC: 2 µg/mL (≈ 5.07 µM)
[6]
  MIC: 0.5 µg/mL (≈ 1.27 µM)
[7]
  MIC: 1 µg/mL (≈ 2.54 µM)
[8]
  MIC: 0.5 µg/mL (≈ 1.27 µM)
[9]
  MIC: 0.5 µg/mL (≈ 1.27 µM)
Strain #12 Escherichia coli
  MIC: 0.5 µg/mL (≈ 1.27 µM)
Strain #13 Escherichia coli
  MIC: 1 µg/mL (≈ 2.54 µM)
Strain #14 Klebsiella oxytoca
  MIC: 1 µg/mL (≈ 2.54 µM)
[10]
  MIC: 1 µg/mL (≈ 2.54 µM)
[11]
  MIC: ≤ 0.008 µg/mL
Strain #17 Morganella Morganii
  MIC: 4 µg/mL (≈ 10.1 µM)
Strain #18 Morganella Morganii
  MIC: 4 µg/mL (≈ 10.1 µM)
Strain #19 Proteus vulgaris
  MIC: 2 µg/mL (≈ 5.07 µM)
Strain #20 Proteus mirabilis
  MIC: 0.5 µg/mL (≈ 1.27 µM)
[12]
  MIC: 2 µg/mL (≈ 5.07 µM)
[13]
  MIC: 1 µg/mL (≈ 2.54 µM)
Strain #23 Serratia marcescens
  MIC: 2 µg/mL (≈ 5.07 µM)
Strain #24 Serratia marcescens
  MIC: 2 µg/mL (≈ 5.07 µM)
[14]
  MIC: 1 µg/mL (≈ 2.54 µM)
Strain #26 Shigella sonnei
  MIC: 1 µg/mL (≈ 2.54 µM)
Strain #27 Shigella flexneri
  MIC: 0.5 µg/mL (≈ 1.27 µM)
[15]
  MIC: 0.5 µg/mL (≈ 1.27 µM)

From US9937151B2, “Carbapenem antibacterials with gram-negative activity” (priority 2010, dated 2018)
